# System: Male BALB/c mice
# Test: Murine atopic dermatitis model by multiple oxazolone challenges
# Assay type: in vivo
# Settings: result in words
# Procedure: Murine Atopic Dermatitis Model by Multiple Oxazolone Challenges
# Method: Male BALB/c mice (n=5-7 per group) were sensitised on Day 1 by the topical application of 50 μL of 1% oxazolone in acetone/olive oil (4:1) on the abdominal skin. On days 8, 10, 12, 15, 17, 19, 22, 24 and 26, animals received repeated challenges with 25 μL of 0.2% oxazolone, applied topically on the inner side of their right ear. On days 8-26, 25 μL of a solution of the test compound (prepared by dissolving compound in acetone/olive oil 4:1 and heating) at the desired concentration were administered on the outer side of the right ears. On days 12, 19 and 26, right ear thickness was determined with a calliper one hour after oxazolone application.
row,SMILES,in vivo activity in the atopic dermatitis model of example 10
1,"CNC1CN(c2cc(CNCC3CC3)nc(N)n2)C1 [Example 1b, 4-((Cyclopropylmethylamino)methyl)-6-(3-(methylamino)azetidin-1-yl)pyrimidin-2-amine]",outstanding in vivo activity
2,"CNC1CN(c2cc(CNC3CCCC3)nc(N)n2)C1 [Example 1t, 4-((Cyclopentylamino)methyl)-6-(3-(methylamino)azetidin-1-yl)pyrimidin-2-amine]",outstanding in vivo activity
